Here are results for one substance from patent US8575089B2, “Composition for preventing or treating inflammation” (University-Industry Cooperation Group of Kyung Hee, priority 2009, dated 2013).

This assay has as its system mononuclear cells isolated from peripheral blood. As to the kind of experiment: IL-6 and IL-10 expression (ELISA) in peripheral blood mononuclear cells treated with SP. Format: cell-based, C57b1/6 mice. Conditions: peripheral blood mononuclear cells in T-cell activation media (ConA); 10 nmole/kg SP; 4.5, 10, 24 hours; FIG. 1. How it is done: Peripheral blood was collected from C57b1/6 mice (8 weeks, sex; male, n=5, Average Weight; 20 g), diluted doubly with PBS, carefully placed on Ficoll in a tube, and then centrifuged at 2200 rpm for 20 minutes. By centrifuging, from the bottom, an erythrocyte layer, a ficoll layer, a mononuclear cell layer, and a plasma layer were obtained in order. The mononuclear cell layer and plasma layer were isolated, excluding the erythrocyte layer and ficoll layer, and then washed one time with PBS. Then, the number of cells was counted; the cells with a concentration of 1×10^5/0.2 ml were seeded onto T-cell activation media (lymphocyte activation media; RPMI, 10% FBS, 100 μM 2-mercaptoetanol, 20 μg/ml ConA); then the cells were cultured at an incubator of 37° C.; and then culture supernatant was taken at 4.5 hours, 10 hours, and 24 hours. For SP-treated group, 10 nmole/kg of SP dissolved in a physiological saline was treated to T-cell activation media. […] After 30 minutes, 100 μl of stop codon was treated to stop the reaction; the optical density was measured at 450 nm; the amounts of cytokines were converted based on a protein conversion formula by a standard sample; and then the results were shown in FIG. 1.

Where no end group is shown, it is not given here.

Regarding “Substance-P (RPKPQQFFGLM; not fully specified; ends and bridges not checked; UniProt P20366 58-68, looked up)”, the “expression level of IL-6 in culture supernatant” value is reported as “no a significant difference” and the “expression level of IL-10 in culture supernatant” value is listed as “increased”.
